From PubChem BioAssay (NCI)
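Cells were grown in 96-well plates and exposed to each compound for 48 hours at five concentrations; endpoints were interpolated linearly between bracketing concentrations, or set to the highest concentration if not reached. GI50 is the concentration that inhibits growth by half. TGI denotes the concentration required for complete inhibition of growth.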

Tests used:
Test in all cases: DTP human tumour cell line panel, 48 h; in the data active = GI50 below about 0.43 µM; inactive = the rest
786-0 renal = tested on: 786-0 renal
A498 renal = tested on: A498 renal
A549 NSCLC = tested on: A549 NSCLC
ACHN renal = tested on: ACHN renal
BT-549 breast = tested on: BT-549 breast
CAKI-1 renal = tested on: CAKI-1 renal
CCRF-CEM leukemia = tested on: CCRF-CEM leukemia
COLO 205 colon = tested on: COLO 205 colon
DU-145 prostate = tested on: DU-145 prostate
EKVX NSCLC = tested on: EKVX NSCLC
HCC-2998 colon = tested on: HCC-2998 colon
HCT-116 colon = tested on: HCT-116 colon
HCT-15 colon = tested on: HCT-15 colon
HL-60(TB) leukemia = tested on: HL-60(TB) leukemia
HOP-62 NSCLC = tested on: HOP-62 NSCLC
HOP-92 NSCLC = tested on: HOP-92 NSCLC
HS 578T breast = tested on: HS 578T breast
HT29 colon = tested on: HT29 colon
IGROV1 ovarian = tested on: IGROV1 ovarian
K-562 leukemia = tested on: K-562 leukemia
KM12 colon = tested on: KM12 colon
LOX IMVI melanoma = tested on: LOX IMVI melanoma
M14 melanoma = tested on: M14 melanoma
MALME-3M melanoma = tested on: MALME-3M melanoma
MCF7 breast = tested on: MCF7 breast
MDA-MB-231 breast = tested on: MDA-MB-231 breast
MDA-MB-435 = tested on: MDA-MB-435
MOLT-4 leukemia = tested on: MOLT-4 leukemia
NCI-H226 lung = tested on: NCI-H226 lung

COC(=O)c1c(C)c2n(c1C)C(=O)C(c1ccccc1)=C2
> 100 µM: TGI (786-0 renal) | TGI (A498 renal) | TGI (A549 NSCLC) | TGI (ACHN renal) | TGI (BT-549 breast) | TGI (CAKI-1 renal) | TGI (CCRF-CEM leukemia) | TGI (COLO 205 colon) | TGI (DU-145 prostate) | TGI (EKVX NSCLC) | TGI (HCC-2998 colon) | TGI (HCT-116 colon) | TGI (HCT-15 colon) | TGI (HL-60(TB) leukemia) | TGI (HOP-62 NSCLC) | TGI (HOP-92 NSCLC) | TGI (HS 578T breast) | TGI (HT29 colon) | TGI (IGROV1 ovarian) | TGI (K-562 leukemia) | TGI (KM12 colon) | TGI (LOX IMVI melanoma) | TGI (M14 melanoma) | TGI (MALME-3M melanoma) | TGI (MCF7 breast) | TGI (MDA-MB-231 breast) | TGI (MDA-MB-435) | TGI (MOLT-4 leukemia) | TGI (NCI-H226 lung)
inactive: GI50 (786-0 renal) 88.1 µM | GI50 (A498 renal) > 84.7 µM | GI50 (A549 NSCLC) > 81.2 µM | GI50 (ACHN renal) > 87.6 µM | GI50 (BT-549 breast) 61.6 µM | GI50 (CAKI-1 renal) > 47.9 µM | GI50 (CCRF-CEM leukemia) 51.8 µM | GI50 (COLO 205 colon) > 93 µM | GI50 (DU-145 prostate) > 100 µM | GI50 (EKVX NSCLC) 5.91 µM | GI50 (HCC-2998 colon) > 57.8 µM | GI50 (HCT-116 colon) 42.5 µM | GI50 (HCT-15 colon) 28.9 µM | GI50 (HL-60(TB) leukemia) 53.8 µM | GI50 (HOP-62 NSCLC) 67.1 µM | GI50 (HOP-92 NSCLC) > 47.1 µM | GI50 (HS 578T breast) 8.13 µM | GI50 (HT29 colon) 41.1 µM | GI50 (IGROV1 ovarian) 34.4 µM | GI50 (K-562 leukemia) 45.3 µM | GI50 (KM12 colon) 49.7 µM | GI50 (LOX IMVI melanoma) 58.8 µM | GI50 (M14 melanoma) > 71 µM | GI50 (MALME-3M melanoma) > 100 µM | GI50 (MCF7 breast) 5.32 µM | GI50 (MDA-MB-231 breast) 24.3 µM | GI50 (MDA-MB-435) 25.1 µM | GI50 (MOLT-4 leukemia) 30.8 µM | GI50 (NCI-H226 lung) > 100 µM
